In general, viability refers to a read-out of living cells in per cent, often relative to untreated cells.

The nature of one data set: in vitro. Particulars: human, hela cells, % viability.
Consider `Cc1nn(C)c(N2CCNCC2)c1NC(=O)Cc1c[nH]c2ccccc12` [CBK050256T], for which the viability at 28.5 h, 10 µM is 97.1%. For the molecule `O=S(=O)(NCC1(c2ccccc2)CCCC1)c1cccnc1` [CBK282762], the viability at 28.5 h, 10 µM is 102%. `CCOc1cc(OCC)cc(C(=O)N2CCC3(CC2)CC(=O)c2ccc(N)cc2O3)c1` [CBK168018]: the viability at 28.5 h, 10 µM came to 111%.

As to `CCCC(=O)N1CCCCC1c1c(-c2onc(C)c2C)cnn1C` (centres unmarked) [CBK282259], the viability at 28.5 h, 10 µM was 94.7%. For `N=C(N)NC1=NC(=O)C(CC(=O)Nc2ccc(Oc3ccccc3)cc2)S1` (centres unmarked) [CBK300482], the viability at 28.5 h, 10 µM worked out at 105%.

Take `CCSc1nc2ccccc2n1CC(=O)O` [CBK262059]: the viability at 28.5 h, 10 µM came out at 87.7%. On the same count and under the same terms, to `Cc1ccc(CC(=O)N2CCC(Cc3ccc(-c4cccc(C)c4)cc3)(C(N)=O)CC2)cc1` [CBK285906] belongs 89%. Consider `COc1ccc(-c2ccc(SCC(=O)Nc3cc(C)on3)nn2)cc1` [CBK287634], for which the viability at 28.5 h, 10 µM amounted to 88.7%.

`CCN1c2ccc(-c3cncn3CC(=O)NC(C)(C)C)cc2CC1C` (centres unmarked) [CBK281815]: the viability at 28.5 h, 10 µM is 95.7%. Regarding `CC1CCc2c(sc(Nc3nc4c(F)cccc4s3)c2C(N)=O)C1` (centres unmarked) [CBK287477], the viability at 28.5 h, 10 µM came out at 102%. Consider `COc1ccc(NC(=O)CSCc2cc(O)[nH]n2)cc1` [CBK268417], for which the viability at 28.5 h, 10 µM is 99.3%. As for `CCS(=O)(=O)Nc1cc(Cl)ccc1C` [CBK111350], the viability at 28.5 h, 10 µM was 79.1%. In the case of `Cc1cc(N2CCOCC2)ccc1NC(=O)CCOc1cccc(Cl)c1` [CBK305724], the viability at 28.5 h, 10 µM was 102%.

As to `O=C(CN(c1cc(C(F)(F)F)ccc1Cl)S(=O)(=O)c1ccccc1)NCc1cccnc1` [CBK264607], the viability at 28.5 h, 10 µM was found to be 94.4%. `Nc1nc(N)c2ncn([C@@H]3O[C@H](CO)[C@H](O)C3O)c2n1` (some centres unmarked) [CBK201275]: the viability at 28.5 h, 10 µM is 102%. As to `CC(=O)Nc1ccc(S(=O)(=O)N2CCN(Cc3ccc([N+](=O)[O-])cc3)CC2)cc1` [CBK264231G], the viability at 28.5 h, 10 µM came to 94.3%. Same read-out and setting: in the case of `CCc1cc2c(=O)c(-c3nc(C)cs3)c(CCC(=O)O)oc2cc1O` [CBK264838] it was 108%; in that of `Cc1ccc(S(=O)(=O)Nc2cc(C)on2)cc1` [CBK261119], 93.7%. Take `COc1ccc2[nH]c3c(c2c1)CCNC31CCN(Cc2cc(F)cc(F)c2)C1` (centres unmarked) [CBK039368]: the viability at 28.5 h, 10 µM amounted to 81.9%.

Turning to `Cc1sc2c(C3CCN(C(=O)C4CC4C)CC3)nc(C)n2c1C` (centres unmarked) [CBK285299], the viability at 28.5 h, 10 µM stood at 66.4%. On the same count and under the same terms, to `O=C(CSc1ccccc1)Nc1cccc(NC(=O)c2cccs2)c1` [CBK266788] belongs 96.7%. On the same count and under the same terms, in the case of `Cc1scc(C(=O)NN2CCN(C)CC2)c1-c1ccccc1` [CBK268115] it was 93%; in that of `Cc1cc(C[C@@H]2COC[C@H]2NCc2ccccc2Cl)on1` [CBK282969], 94.8%.

Take `O=C(CC(NC(=O)c1ccccc1)c1ccccc1)Nc1cccc2ccccc12` (centres unmarked) [CBK263901]: the viability at 28.5 h, 10 µM stood at 98.9%. As to `CCOC(=O)N1CCCC(=O)c2c(C(=O)O)cn(C)c21` [CBK005301], the viability at 28.5 h, 10 µM was determined as 86.4%. Regarding `Cc1ccc(Br)cc1S(=O)(=O)N1CCN(C(c2ccccc2)c2ccccc2)CC1` [CBK263433], the viability at 28.5 h, 10 µM was 95.3%. For `O=C1CN(C(=O)CCn2c(C(F)(F)F)cc3cccnc32)CCN1` [CBK284888], the viability at 28.5 h, 10 µM worked out at 92.8%.

Regarding `CC(C)[C@H](CO)Nc1nc(-c2ccccc2)cnc1N` [CBK063933], the viability at 28.5 h, 10 µM was 107%. `Brc1ccc(-c2nc(NCCCN3CCOCC3)cc(-c3ccccc3)n2)cc1` [CBK261712]: the viability at 28.5 h, 10 µM is 90.1%. On to `CCCc1nnc2sc(C3CCC(=O)N(C(C)C)C3)nn12` (centres unmarked) [CBK306942], for which the viability at 28.5 h, 10 µM stood at 108%.

Turning to `Cc1cccc(-c2nc(=S)c3c(n2CCCN(C)C)CCCC3)c1` [CBK268406], the viability at 28.5 h, 10 µM was 102%.

Consider `CC1=CCC(C(=O)O)C(C(=O)Nc2ccccc2NC(=O)c2ccc(C(F)(F)F)cc2)C1` (centres unmarked) [CBK265794], for which the viability at 28.5 h, 10 µM came out at 99.9%. For the molecule `CC(C)Cc1cc(CNS(=O)(=O)Cc2ccccc2F)on1` [CBK281505], the viability at 28.5 h, 10 µM amounted to 96.6%. As to `COc1ccc(NC(=O)CC(C(=O)O)N2CCOCC2)cc1` (centres unmarked) [CBK266955], the viability at 28.5 h, 10 µM was 101%.

Turning to `CCOc1ccc(C(=O)NC2CC3CCC(C2)N3Cc2ccc(OC)cc2)cc1` (centres unmarked) [CBK121398], the viability at 28.5 h, 10 µM is 109%. Same read-out and setting: to `COc1ccccc1-c1cnc2[nH]c(=O)n(C3CCCCC3)c2n1` [CBK064203] belongs 98.7%; to `O=C(COc1ccc2oc3ccccc3c2c1)c1ccccc1` [CBK268931], 99.5%.

`COCCNC(=O)N1CCN(Cc2ccccn2)CC1` [CBK304817]: the viability at 28.5 h, 10 µM amounted to 110%. On to `COC(=O)CN1C(=O)S/C(=C/c2cc(C)n(-c3ccc(S(N)(=O)=O)cc3)c2C)C1=O` [CBK265249], for which the viability at 28.5 h, 10 µM amounted to 95.9%. Regarding `COc1ccc(CNC(=O)c2cc(S(=O)(=O)N(C)C)ccc2OC)cc1` [CBK307586], the viability at 28.5 h, 10 µM is 85.1%. For `N=c1n(CCCOc2ccc(Br)cc2)c2ccccc2n1CC(N)=O` [CBK268786C], the viability at 28.5 h, 10 µM was 86.9%. Take `Cc1ccccc1Cn1c(CN2CCN(c3ccccc3)CC2)nc2c1c(=O)n(C)c(=O)n2C` [CBK269488]: the viability at 28.5 h, 10 µM is 94.6%. In the case of `CC(C)N1CC[C@H]2CN(C(=O)CCC(=O)O)CC[C@H]2CC1=O` [CBK288789], the viability at 28.5 h, 10 µM is 87.8%. Still for that read-out and setting: in the case of `O=C1NCCc2c1[nH]c1c(Cl)cccc21` [CBK015762] it was 78.2%; in that of `COc1ccccc1-c1ccc(NC(=O)CCc2nc3ccccc3[nH]2)cc1` [CBK285651], 103%; in that of `O=C(CN(c1ccccc1)S(=O)(=O)c1ccc(F)cc1)Nc1ccc(Cl)c(Cl)c1` [CBK268740], 86.6%. In the case of `O=C(c1csnn1)N1CCN(CCc2ccccc2)CC1` [CBK200228], the viability at 28.5 h, 10 µM turned out to be 96.6%. For the molecule `CN(C)CC1(O)C2CN3CCN(C2)CC1(c1ccccc1)C3` (centres unmarked) [CBK263029], the viability at 28.5 h, 10 µM is 97.5%. `Cc1ccc2[nH]c(-c3cccc(NC(=O)c4ccc(-n5cnnc5)cc4)c3)nc2c1` [CBK285839]: the viability at 28.5 h, 10 µM came to 94.1%. Regarding `CCCc1nn(Cc2ccccn2)c(=O)c2cc3ccsc3n12` [CBK284229], the viability at 28.5 h, 10 µM is 61.1%.

In the case of `CCN1CCN(c2ccc(NC(=O)c3cccc(OCc4ccccc4)c3)cc2)CC1` [CBK266471], the viability at 28.5 h, 10 µM amounted to 95%. As to `COc1ccc(NC(=S)N2CCN(C/C=C/c3ccccc3)CC2)cc1OC` [CBK266891], the viability at 28.5 h, 10 µM stood at 88.7%. As for `Cn1nnnc1SCC(=O)Nc1cc(F)ccc1F` [CBK057872], the viability at 28.5 h, 10 µM was 79.9%. Take `CCn1ncc(Br)c1C(=O)Nc1ccc(Cl)cn1` [CBK265826]: the viability at 28.5 h, 10 µM came out at 94.8%. As for `COc1ccccc1-c1cccc(C2CCCN(C(=O)Cc3c[nH]c4ccccc34)C2)n1` (centres unmarked) [CBK286143], the viability at 28.5 h, 10 µM was found to be 100%. `O=C1CCCN1c1ccc(S(=O)(=O)N(c2ccccc2)C2CCNCC2)cc1` [CBK165122T]: the viability at 28.5 h, 10 µM amounted to 109%. The same measure, in the same setting: in the case of `Cc1noc(C)c1CNS(=O)(=O)N1CCOC(c2ccccc2)C1` (centres unmarked) [CBK305306] it was 83.2%; in that of `O=C(O)CN1C(=O)C2CCC(c3ccccc3)CC2C1=O` (centres unmarked) [CBK286952], 95.7%. The same measure, in the same setting: in the case of `CC12CN3CC(C)(CN(C1)C3c1ccc(Br)cc1)C2=O` (centres unmarked) [CBK261452] it was 92.1%; in that of `CC(C)(C)c1ccc(S(=O)(=O)N/N=C\c2ccc(Cl)cc2Cl)cc1` [CBK264759], 84.6%. Same read-out and setting: to `COc1ccc(Cn2nc(NC(C)=O)c3ccccc32)cc1` [CBK048200] belongs 109%; to `O=C(CSc1ccc2nnc(-c3ccc(F)cc3)n2n1)N1CCCCC1` [CBK287520], 98.4%; to `CCC1CCCCN1C(=O)c1ccccc1C(=O)OC` (centres unmarked) [CBK083196], 92.4%. As for `CCCCSc1nc(N)cc(N2CCC(N3CCCC3=O)CC2)n1` [CBK307525], the viability at 28.5 h, 10 µM came to 108%. Same read-out and setting: in the case of `COc1ccc(CC(=O)Nc2ccc(S(=O)(=O)NC(C)C)cc2)cc1` [CBK267833] it was 93.2%. `c1ccc(CSc2ccc3nnc(-c4ccncc4)n3n2)cc1` [CBK287625]: the viability at 28.5 h, 10 µM was determined as 94.4%. With `CN(C)CCN(C)c1cccc(/C=C/c2ccccc2)n1` [CBK036826], the viability at 28.5 h, 10 µM turned out to be 109%. Regarding `Cn1nccc1CN1CCNC(=O)C1c1ccccc1C(F)(F)F` (centres unmarked) [CBK306422], the viability at 28.5 h, 10 µM was 86.9%. As to `Cc1ccc(N(CC(=O)Nc2ccc(S(=O)(=O)N3CCCCC3)cc2)S(C)(=O)=O)c(C)c1` [CBK263981], the viability at 28.5 h, 10 µM was found to be 99.8%.

As for `COc1ccc(S(=O)(=O)NC(CCSC)c2nnc3ccccn23)cc1` (centres unmarked) [CBK304402], the viability at 28.5 h, 10 µM was determined as 109%. On to `Cn1nc(C2CC2)cc1NC(=O)NCC1CCN(c2ccccc2F)C1` (centres unmarked) [CBK304380], for which the viability at 28.5 h, 10 µM amounted to 85.2%. On to `O=S(=O)(Nc1cc(F)cc(F)c1F)c1cc(OC2CCNCC2)c2occc2c1` [CBK082814C], for which the viability at 28.5 h, 10 µM worked out at 83.9%. For the molecule `CCCC/C=C/c1cncc(N2CCCC2CO)n1` (centres unmarked) [CBK065402], the viability at 28.5 h, 10 µM turned out to be 91.8%.

Regarding `Cc1cc(CNC(=O)N(C)C2CCN(C)C2)no1` (centres unmarked) [CBK155992], the viability at 28.5 h, 10 µM stood at 103%. As to `COC(=O)c1sccc1NC(=O)c1ccc(F)cc1Cl` [CBK270325], the viability at 28.5 h, 10 µM was found to be 88.2%. Regarding `COc1ccc(C)cc1NS(=O)(=O)c1cc(I)c2occc2c1` [CBK078531], the viability at 28.5 h, 10 µM came to 72.6%. `O=C(Nc1ccc(S(=O)(=O)NCc2ccncc2)cc1)c1ccccc1Cl` [CBK269664]: the viability at 28.5 h, 10 µM stood at 91.5%.

For `O=C(Cn1cccn1)NC(CN1CCCCC1)c1ccccc1` (centres unmarked) [CBK281726], the viability at 28.5 h, 10 µM was 104%.

On to `COc1ccc(-c2cc(N3CCC(N4CCCCC4)CC3)ncn2)cc1OC` [CBK037752], for which the viability at 28.5 h, 10 µM turned out to be 90%.

The data set is the same for the next values; noted with them: human, hela cells, % viability, bulk resorufin, single well.
Take `CCCN(CCc1cccnc1)C1Cc2cc(OC)c(OC)cc2C1` [CBK023935C]: the viability at 28.5 h, 10 µM turned out to be 88.1%.

These data come from PMC12040169 (PLOS Biology, 2025).
